This passage reports Ki results from patent US8173635B2, “Kinase inhibitors” (Vertex Pharmaceuticals Incorporated, priority 2007, dated 2012).

Format in all cases: biochemical
Test [1] deals with PKC alpha kinase (Homo sapiens, UniProt P17252). Kind of test: PKC alpha kinase inhibition, coupled-enzyme NADH absorbance assay (Ki). Particulars: 130 μM ATP, 4.5 nM PKC alpha, 30° C.; read-out: Ki PKC alpha. The procedure:
An assay buffer solution was prepared which consisted of 100 mM HEPES (pH 7.5), 10 mM MgCl2, 25 mM NaCl, 0.1 mM EDTA, 100 μM CaCl2 and 0.01% Brij. […] To 16 μL of this enzyme buffer, in a 384 well plate, was added 1 μL of VRT stock solution in DMSO. The mixture was allowed to equilibrate for 10 mins at 30° C. The enzyme reaction was initiated by the addition of 16 μL stock ATP solution prepared in assay buffer to a final assay concentration of 130 μM. Initial rate data was determined from the rate of change of absorbance at 340 nm (corresponding to stoichiometric consumption of NADH) using a Molecular Devices Spectramax plate reader (Sunnyvale, Calif.) over 15 mins at 30° C. […] Ki values were calculated from initial rate data by non-linear regression using the Prism software package (Prism 4.0a, Graphpad Software, San Diego, Calif.).

Test [2] has as its target PKC theta kinase (Homo sapiens, UniProt Q04759). Put plainly: PKC theta kinase inhibition, coupled-enzyme NADH absorbance assay (Ki). As to conditions: 240 μM ATP, 18 nM PKC theta, 30° C.; read-out: Ki PKC theta. The procedure: An assay buffer solution was prepared which consisted of 100 mM HEPES (pH 7.5), 10 mM MgCl2, 25 mM NaCl, 0.1 mM EDTA and 0.01% Brij. […] To 60 μL of this enzyme buffer, in a 384 well plate, was added 2 μL of VRT stock solution in DMSO. The mixture was allowed to equilibrate for 10 mins at 30° C. […] Ki values were calculated from initial rate data by non-linear regression using the Prism software package (Prism 4.0a, Graphpad Software, San Diego, Calif.).

Test [3] deals with PKC delta kinase (Homo sapiens, UniProt Q05655). Put plainly: PKC delta kinase inhibition, coupled-enzyme NADH absorbance assay (Ki). Particulars: 150 μM ATP, 46 nM PKC delta, 30° C.; read-out: Ki PKC delta. The procedure:
An assay buffer solution was prepared which consisted of 100 mM HEPES (pH 7.5), 10 mM MgCl2, 25 mM NaCl, 0.1 mM EDTA and 0.01% Brij. […] To 16 μL of this enzyme buffer, in a 384 well plate, was added 1 μL of VRT stock solution in DMSO. The mixture was allowed to equilibrate for 10 mins at 30° C. […] Ki values were calculated from initial rate data by non-linear regression using the Prism software package (Prism 4.0a, Graphpad Software, San Diego, Calif.).

SMILES strings stand for the structures. pKi: −log10 of the molar value.

PKC theta kinase, sequence (Q04759 whole entry): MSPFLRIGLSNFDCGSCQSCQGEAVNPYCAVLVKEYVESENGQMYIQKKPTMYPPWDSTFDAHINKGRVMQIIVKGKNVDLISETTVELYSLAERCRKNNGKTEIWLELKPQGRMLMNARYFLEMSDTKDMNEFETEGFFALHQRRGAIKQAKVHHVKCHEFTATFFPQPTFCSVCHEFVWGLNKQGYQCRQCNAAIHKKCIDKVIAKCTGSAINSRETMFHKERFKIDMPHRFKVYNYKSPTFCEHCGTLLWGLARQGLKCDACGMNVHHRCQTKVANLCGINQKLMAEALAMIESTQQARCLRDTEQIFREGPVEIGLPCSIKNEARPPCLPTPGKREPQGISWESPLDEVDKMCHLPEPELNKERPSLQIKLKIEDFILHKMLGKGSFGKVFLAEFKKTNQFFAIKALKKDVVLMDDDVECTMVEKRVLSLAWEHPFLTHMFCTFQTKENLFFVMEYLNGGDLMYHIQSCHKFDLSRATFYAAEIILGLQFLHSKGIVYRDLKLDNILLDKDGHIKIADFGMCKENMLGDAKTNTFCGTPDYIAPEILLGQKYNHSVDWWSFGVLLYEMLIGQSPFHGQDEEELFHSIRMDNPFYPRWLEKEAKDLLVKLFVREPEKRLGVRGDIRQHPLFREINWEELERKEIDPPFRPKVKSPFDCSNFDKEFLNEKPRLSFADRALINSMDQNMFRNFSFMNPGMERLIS
PKC delta kinase, sequence (Q05655 whole entry): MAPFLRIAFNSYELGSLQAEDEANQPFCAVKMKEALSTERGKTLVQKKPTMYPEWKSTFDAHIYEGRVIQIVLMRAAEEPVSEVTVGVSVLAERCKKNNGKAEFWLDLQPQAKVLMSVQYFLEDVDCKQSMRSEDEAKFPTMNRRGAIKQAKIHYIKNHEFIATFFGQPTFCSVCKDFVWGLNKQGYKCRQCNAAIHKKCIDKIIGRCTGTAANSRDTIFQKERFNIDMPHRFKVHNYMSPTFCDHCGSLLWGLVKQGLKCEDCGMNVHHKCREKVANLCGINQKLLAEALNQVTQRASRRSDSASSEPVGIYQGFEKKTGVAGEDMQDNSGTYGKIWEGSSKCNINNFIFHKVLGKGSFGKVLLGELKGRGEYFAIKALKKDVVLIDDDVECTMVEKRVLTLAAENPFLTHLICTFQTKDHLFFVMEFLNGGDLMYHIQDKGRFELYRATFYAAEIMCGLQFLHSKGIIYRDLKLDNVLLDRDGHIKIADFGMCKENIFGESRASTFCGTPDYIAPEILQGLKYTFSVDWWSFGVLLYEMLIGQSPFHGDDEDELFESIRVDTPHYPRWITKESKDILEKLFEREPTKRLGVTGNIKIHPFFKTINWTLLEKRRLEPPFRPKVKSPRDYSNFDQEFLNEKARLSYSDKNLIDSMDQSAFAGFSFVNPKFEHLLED

With `CCC(C)(CN)c1cc(CCC(F)F)cc(-c2ccnc3[nH]ncc23)c1` (stereo not drawn) [Compound 161], the pKi in test [1] was > 5.55; in test [2], > 6.30; in test [3] it was < 5.70.
As to `COCC[C@](C)(CN)c1cccc(-c2ccnc3[nH]nc(C(F)(F)F)c23)c1` [Compound 287], the pKi in test [1] is > 6.30; in test [2] it was > 7.30; in test [3], > 5.55.
Regarding `C=CCC(C)(C#N)c1cccc(-c2ccnc3[nH]ncc23)c1` (stereo not drawn) [Compound 90], the pKi was > 5.55 in test [1], > 6.30 in test [2] and > 5.55 in test [3].
In the case of `N[C@H]1CCC[C@@H]1c1cccc(-c2ccnc3[nH]ncc23)c1` [Compound 251], the pKi in test [1] is < 5.92; in test [2], > 6.30; in test [3], < 5.92.
Take `CCCCNC(CC)c1cccc(-c2ccnc3[nH]ncc23)c1` (stereo not drawn) [Compound 247]: the pKi in test [1] is < 5.92; in test [2] it was > 6.30; in test [3], < 5.92.
As to `CCc1cc(-c2ccnc3[nH]ncc23)cc(C(C)(C)C#N)c1` [Compound 62], the pKi is > 5.55 in test [1], > 7.30 in test [2] and < 5.55 in test [3].
Turning to `CC(C)(C#N)c1cc(-c2ccnc3[nH]ncc23)cc(N2CCC2)c1` [Compound 11], the pKi is < 5.55 in test [1], > 6.30 in test [2] and < 5.55 in test [3].
Regarding `CC(F)c1cc(-c2ccnc3[nH]ncc23)cc(C(C)(C)C#N)c1` (stereo not drawn) [Compound 88], the pKi in test [1] was > 5.55; in test [2], > 7.30; in test [3], > 5.55.
As to `FC(F)C1(c2cccc(-c3ccnc4[nH]ncc34)c2)CCNC1` (stereo not drawn) [Compound 201], the pKi in test [1] was > 6.30; in test [2] it was > 7.30; in test [3], > 6.30.
Take `NCC1(c2cccc(-c3ccnc4[nH]ncc34)c2)CC1` [Compound 153]: the pKi was > 5.55 in test [1], > 7.30 in test [2] and > 5.55 in test [3].
As to `C#Cc1cc(-c2ccnc3[nH]ncc23)cc(C(C)(C)CN)c1` [Compound 40], the pKi in test [1] is > 5.55; in test [2] it was > 6.30; in test [3], > 6.30.
With `C=Cc1cc(-c2ccnc3[nH]ncc23)cc(C(C)(C)C#N)c1` [Compound 55], the pKi in test [1] was > 5.55; in test [2], > 6.30; in test [3], > 5.55.
Consider `Cc1cc(-c2ccnc3[nH]nc(Cl)c23)cc(C2(CN)CCC2)c1` [Compound 207], for which the pKi in test [1] is > 6.30; in test [2], > 7.30; in test [3], > 6.30.
For `N#CC1(c2cccc(-c3ccnc4[nH]ncc34)c2)CC1` [Compound 98], the pKi was > 5.55 in test [1], > 7.30 in test [2] and > 6.30 in test [3].
The matching figures for `NCC1(c2cccc(-c3ccnc4[nH]nc(C(F)(F)F)c34)c2)CCC1` [Compound 280]: > 6.30, > 7.30 and > 6.30.
Consider `CCC(C)(C#N)c1cc(CCN)cc(-c2ccnc3[nH]ncc23)c1` (stereo not drawn) [Compound 127], for which the pKi in test [1] was < 5.92; in test [2], > 6.30; in test [3], < 5.70.
Take `NCC1(c2cc(F)cc(-c3ccnc4[nH]nc(Cl)c34)c2)CCC1` [Compound 255]: the pKi in test [1], in test [2] and in test [3] was > 7.30 each time.
In the case of `CCc1cc(-c2ccnc3[nH]nc(C(F)(F)F)c23)cc(C(C)(CC)CN)c1` (stereo not drawn) [Compound 271], the values for the pKi in test [1], in test [2] and in test [3] were > 6.30, > 7.30 and > 6.30, respectively.
Turning to `CC#CC[C@](C)(CN)c1cccc(-c2ccnc3[nH]ncc23)c1` [Compound 185], the pKi in test [1], in test [2] and in test [3] was > 7.30 throughout.
On to `CC(CC#N)c1cc(Br)cc(-c2ccnc3[nH]ncc23)c1` (stereo not drawn) [Compound 238], for which the pKi in test [1] is > 5.55; in test [2], > 6.30; in test [3], > 5.55.
Take `NCC1(c2cccc(-c3ccnc4[nH]ncc34)c2)CCC(F)(F)CC1` [Compound 181]: the pKi in test [1] was > 5.55; in test [2], > 6.30; in test [3] it was > 5.55.
As to `CCCc1cc(-c2ccnc3[nH]nc(Cl)c23)cc(C(C)(CC)CN)c1` (stereo not drawn) [Compound 210], the pKi in test [1] is > 6.30; in test [2] it was > 7.30; in test [3], > 5.55.
As for `COCCCC(C)(CN)c1cccc(-c2ccnc3[nH]ncc23)c1` (stereo not drawn) [Compound 169], the pKi is > 5.55 in test [1], > 7.30 in test [2] and > 6.30 in test [3].
As to `N#CC(CCN)c1cccc(-c2ccnc3[nH]ncc23)c1` (stereo not drawn) [Compound 225], the pKi in test [1] is > 5.55; in test [2], > 6.30; in test [3], > 5.55.
For the compound `N#CC1(c2cccc(-c3ccnc4[nH]ncc34)c2)CCC1` [Compound 73], the pKi is > 5.55 in test [1], > 6.30 in test [2] and > 5.55 in test [3].
As for `NCC1(c2cccc(-c3ccnc4[nH]nc(C(F)(F)F)c34)c2)COC1` [Compound 305, (3-(3-(3-(trifluoromethyl)-1H-pyrazolo[3,4-b]pyridin-4-yl)phenyl)oxetan-3-yl)methanamine], the pKi was > 5.55 in test [1], > 7.30 in test [2] and > 6.30 in test [3].
On to `CCCc1cc(-c2ccnc3[nH]ncc23)cc(C2(CCN)CCC2)c1` [Compound 187], for which the pKi in test [1] is < 5.92; in test [2], > 5.55; in test [3], < 5.70.
As to `N#CC1(c2cc(CCO)cc(-c3ccnc4[nH]ncc34)c2)CC1` [Compound 114], the pKi was < 5.92 in test [1], > 7.30 in test [2] and < 5.70 in test [3].
For `COCCC(C)(CN)c1cccc(-c2ccnc3[nH]ncc23)c1` (stereo not drawn) [Compound 146], the pKi in test [1] was > 5.55; in test [2], > 7.30; in test [3] it was > 6.30.
`N#CCC1(c2cccc(-c3ccnc4[nH]ncc34)c2)CNC1` [Compound 192]: the pKi in test [1] was > 6.30; in test [2], > 7.30; in test [3] it was > 6.30.
Take `CCC(C)(CN)c1cc(CCO)cc(-c2ccnc3[nH]ncc23)c1` (stereo not drawn) [Compound 168]: the pKi in test [1] is > 6.30; in test [2], > 7.30; in test [3] it was > 6.30.
With `COc1cccc(CC(C)(CN)c2cccc(-c3ccnc4[nH]ncc34)c2)c1` (stereo not drawn) [Compound 173], the figures for the pKi in test [1], in test [2] and in test [3] were > 6.30, > 7.30 and > 6.30, respectively.
For `C=Cc1ccc(-c2ccnc3n[nH]cc23)cc1C(C)(C)C#N` [Compound 84], the pKi in test [1] is < 5.55; in test [2] it was > 5.55; in test [3] it was < 5.55.
For the compound `CNCc1cc(-c2ccnc3[nH]ncc23)cc(C(C)(C)C#N)c1` [Compound 75], the pKi is < 5.55 in test [1], > 5.55 in test [2] and < 5.55 in test [3].
As to `CCC(C)(CN)c1cc(-c2ccnc3[nH]ncc23)cc(C(C)(F)F)c1` (stereo not drawn) [Compound 165], the pKi in test [1] was > 6.30; in test [2] it was > 7.30; in test [3], > 6.30.
For the compound `OCC1(c2cccc(-c3ccnc4[nH]ncc34)c2)CCNC1` (stereo not drawn) [Compound 196], the pKi in test [1] is > 5.55; in test [2] it was > 7.30; in test [3], > 5.55.
